Experimental data from patent US20190010139A1 (priority 2015, published 2019).
Like-named read-outs stand apart in the source and are kept apart here.

Test system: NL-RLuc virus
Assay: Inhibition of HIV replication (NL-RLuc luciferase reporter virus in MT-2 cells)
Format: cell-based
Settings: Human immunodeficiency virus 1, MT2, 120 h
Procedure, shortened: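 MT-2 cells were infected with NL4-3-derived virus carrying Renilla luciferase in place of part of nef, with serial compound dilutions, in RPMI 1640 with 10% FBS. After 5 days, virus growth was read as luciferase signal. EC50 came from the median effect equation over at least 2 experiments.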

Row | SMILES | EC50 (read-out: Activity) [µM] | EC50 (read-out: EC50 μM) [µM]
1 | Cc1nc(C)c([C@H](OC(C)(C)C)C(=O)O)c(N2CCC3(CCC3)CC2)c1-c1ccc2c(c1)CCN(Cc1ccccc1F)C2 [Example 33, (S)-2-(tert-Butoxy)-2-(5-(2-(2-fluorobenzyl)-1,2,3,4-tetrahydroisoquinolin-6-yl)-2,6-dimethyl-4-(7-azaspiro[3.5]nonan-7-yl)pyridin-3-yl)acetic acid] | < 0.1 | 
2 | Cc1nc(C)c([C@H](OC(C)(C)C)C(=O)O)c(N2CCc3ccccc3C2)c1-c1ccc(OCCc2ccc(F)cc2)cc1 [Example 10, (S)-2-(tert-Butoxy)-2-(4-(3,4-dihydroisoquinolin-2(1H)-yl)-5-(4-(4-fluorophenethoxy)phenyl)-2,6-dimethylpyridin-3-yl)acetic acid] | < 0.1 | 
3 | Cc1nc(C)c([C@H](OC(C)(C)C)C(=O)O)c(N2CCC3(CCNC3)CC2)c1-c1ccc(C(=O)NCc2ccccc2)cc1 [Example 69, (S)-2-(5-(4-(Benzylcarbamoyl)phenyl)-2,6-dimethyl-4-(2,8-diazaspiro[4.5]decan-8-yl)pyridin-3-yl)-2-(tert-butoxy)acetic acid] | > 1 | 9.66
4 | Cc1nc(C)c([C@H](OC(C)(C)C)C(=O)O)c(N2CCC3(CCCCCC3)C2)c1-c1ccc(OCCc2ccc(F)cc2)cc1 [Example 64, (S)-2-(tert-Butoxy)-2-(5-(4-(4-fluorophenethoxy)phenyl)-2,6-dimethyl-4-(2-azaspiro[4.6]undecan-2-yl)pyridin-3-yl)acetic acid] | < 0.1 | 
5 | Cc1nc(COC2CCOCC2)c(-c2ccc(OCCc3ccc(F)cc3)cc2)c(N2CCC3(CCC3)CC2)c1[C@H](OC(C)(C)C)C(=O)O [Example 52, (S)-2-(tert-Butoxy)-2-(5-(4-(4-fluorophenethoxy)phenyl)-2-methyl-4-(7-azaspiro[3.5]nonan-7-yl)-6-(((tetrahydro-2H-pyran-4-yl)oxy)methyl)pyridin-3-yl)acetic acid] | < 0.1 | 
6 | Cc1nc(C)c([C@H](OC(C)(C)C)C(=O)O)c(N2CCC3(CC2)CC3(F)F)c1-c1ccc(OCCc2ccc(F)cc2)cc1 [Example 70, (S)-2-(tert-Butoxy)-2-(4-(1,1-difluoro-6-azaspiro[2.5]octan-6-yl)-5-(4-(4-fluorophenethoxy)phenyl)-2,6-dimethylpyridin-3-yl)acetic acid] | < 0.1 | 
7 | Cc1nc(COC2COC2)c(-c2ccc(OCCc3ccc(F)cc3)cc2)c(N2CCC3(CCC3)CC2)c1[C@H](OC(C)(C)C)C(=O)O [Example 58, (S)-2-(tert-Butoxy)-2-(5-(4-(4-fluorophenethoxy)phenyl)-2-methyl-6-((oxetan-3-yloxy)methyl)-4-(7-azaspiro[3.5]nonan-7-yl)pyridin-3-yl)acetic acid] | < 0.1 | 
8 | Cc1nc(C)c([C@H](OC(C)(C)C)C(=O)O)c(N2CCC3(CCCCC3)CC2)c1-c1ccc(C(=O)NCc2ccccc2)cc1 [Example 61, (S)-2-(5-(4-(Benzylcarbamoyl)phenyl)-2,6-dimethyl-4-(3-azaspiro[5.5]undecan-3-yl)pyridin-3-yl)-2-(tert-butoxy)acetic acid] | < 0.1 | 
9 | Cc1nc(C)c([C@H](OC(C)(C)C)C(=O)O)c(N2CC3CCCC3C2)c1-c1ccc(C(=O)NCc2ccccc2)cc1 (stereo partly drawn) [Example 4, (2S)-2-(5-(4-(Benzylcarbamoyl)phenyl)-4-(hexahydrocyclopenta[c]pyrrol-2(1H)-yl)-2,6-dimethylpyridin-3-yl)-2-(tert-butoxy)acetic acid] | < 0.1 | 
10 | Cc1nc(C)c([C@H](OC(C)(C)C)C(=O)O)c(N2CCC3(CCOC3)CC2)c1-c1ccc(OCCc2ccc(F)cc2)cc1 [Example 67, (S)-2-(tert-Butoxy)-2-(5-(4-(4-fluorophenethoxy)phenyl)-2,6-dimethyl-4-(2-oxa-8-azaspiro[4.5]decan-8-yl)pyridin-3-yl)acetic acid] | < 0.1 | 
11 | Cc1nc(C)c([C@H](OC(C)(C)C)C(=O)O)c(N2CCC3(CCCC3)CC2)c1-c1ccc(OCC(C)(C)c2ccc(F)cc2)cc1 [Example 22, (S)-2-(tert-Butoxy)-2-(5-(4-(2-(4-fluorophenyl)-2-methylpropoxy)phenyl)-2,6-dimethyl-4-(8-azaspiro[4.5]decan-8-yl)pyridin-3-yl)acetic acid] | < 0.1 | 0.026
12 | Cc1nc(C)c([C@H](OC(C)(C)C)C(=O)O)c(N2CCC3(CCCC3)CC2)c1-c1ccc(C(=O)NCc2ccccc2)cc1 [Example 21, (S)-2-(5-(4-(Benzylcarbamoyl)phenyl)-2,6-dimethyl-4-(8-azaspiro[4.5]decan-8-yl)pyridin-3-yl)-2-(tert-butoxy)acetic acid] | < 0.1 | 
